Results on one sequence are retold here after PMC9456187, “The Ambivalence of Connexin43 Gap Peptides in Cardioprotection of the Isolated Heart against Ischemic Injury” (International Journal of Molecular Sciences, 2022).

What all share (set-up): species or system male Wistar rat
For test [1], the system named is isolated perfused male rat hearts. In words: Left ventricular function (LVDP, EDP) after ischemia-reperfusion, Langendorff-perfused heart. Conditions: % recovery of initial preischemic LVDP after 30 min ischemia and 120 min reperfusion; peptide during IPC. As to the method: (§1) All experiments were approved by the Norwegian animal research authority and were performed according to the Norwegian Animal Welfare Act and the European Convention for the Protection of Vertebrate Animals Used for Experimental and other Scientific Purposes (ETS No. 123 and 2010/63/EU). Male Wistar rats 250–350 g (Charles River, UK) were anesthetized with pentobarbital (100 mg/kg i.p.) and heparinized (300 IU i.p.), the chest opened and the heart removed.
(§2) The heart was immediately submerged in an ice-cold buffer and quickly mounted on the perfusion apparatus, where it was perfused with the Krebs–Henseleit buffer (gassed with 5% CO2 and 95%O2) in a constant pressure Langendorff setup (100 cm H2O). The temperature was kept at 37 °C during the whole experiment by keeping the heart submerged in a heated buffer. Left ventricular pressure was recorded using a balloon catheter connected to a pressure transducer. Coronary flow was measured by timed collections of perfusate.
(§3) Hearts were stabilized for 15 min, then either subjected to 30 min of global ischemia and 2 h of reperfusion or preconditioning with 3 cycles of 5 min of ischemia and reperfusion (IPC) before 30 min of global ischemia and 2 h of reperfusion. Care was taken to secure controls corresponding in time and rat batch with the intervention experiments. […]

For test [2] the test system is unchanged. In words: Coronary flow in isolated perfused heart. Conditions: before 30 min ischemia; Gap peptide in buffer. As to the method: as §1, §2, §3
Test [3] relates to isolated perfused male rat hearts (connexin43 hemichannels). In words: Infarct size (TTC staining) after global ischemia-reperfusion, Langendorff-perfused heart. As to the method:
as §1, §2
Hearts were stabilized for 15 min, then either subjected to 30 min of global ischemia and 2 h of reperfusion or preconditioning with 3 cycles of 5 min of ischemia and reperfusion (IPC) before 30 min of global ischemia and 2 h of reperfusion. Care was taken to secure controls corresponding in time and rat batch with the intervention experiments.
Connexin mimetic peptides Gap19 (amino acid sequence KQIEKKFK), Gap26 (VCYDKSFPISHVR) and Gap27 (SRPTEKTIFII) from Pepnome Inc., Hong Kong, China, were dissolved in the Krebs–Henseleit buffer to a final concentration of 0.5 µM [7, 12] and used in experiments the same day. Amino-acid sequences were confirmed by mass spectrometry analysis. The hearts that were subject to ischemia without IPC received the peptides prior to and after 30 min global ischemia. The hearts that were subject to IPC received the peptides during the preconditioning cycles only prior to 30 min ischemia.
At the end of reperfusion, the heart was immediately cut off caudal to the atria yielding only ventricular tissue. The ventricular tissue was then weighed in its wet state and immediately frozen to −18 °C for 24 h, sliced into four or five 2 mm thick slices and dyed with 1% 2, 3, 5 triphenyl tetrazolium chloride (TTC) (Sigma-Aldrich Co., Ltd., St. Louis, MI, USA) in Dulbecco’s phosphate buffered saline (PBS) (Sigma-Aldrich Co.). Each heart was submerged in 50mL of 1% TTC in PBS for 20 min at 37 °C in a light-free environment. Thereafter the slices were quickly dried and fixed in 4% formaldehyde for 30 min before they were scanned by a high-resolution scanner; the images were then blind-coded. Infarcts were manually traced, and the area of infarct relative to the whole area was quantified using Image J software. […]

In the case of KQIEKKFK [Gap19], the “Recovery of LVDP, Gap peptide combined with IPC (in words)” value in test [1] is “significant increase in % recovery of LVDP (p < 0.05)”. The “Coronary flow at baseline (in words)” value in test [2] was “significantly reduced with Gap19 compared to control (p < 0.05)”. For the same sequence, the “Cardioprotection / infarct size reduction when combined with IPC (in words)” value in test [3] (Gap peptide prior to and during three IPC cycles, not at reperfusion) was “protection was maintained”. In test [3] (IPC 3 cycles of 5 min ischemia/reperfusion, Gap peptide 0.5 µM (Figure 1 legend: 0.05 µM) only during preconditioning cycles before 30 min global ischemia, 2 h reperfusion, TTC, mean ± SEM), the “Infarct size in % of untreated control infarcts, Gap peptide combined with IPC” value is on record as 60.9 ± 5.1%. In addition, the “Infarct size reduction (in words)” value in test [3] (no IPC, Gap peptide immediately prior to ischemia and first 10 min of reperfusion) is on record as “reducing infarct size to the same degree as ischemic preconditioning”. Also, the “Infarct size in % of untreated control infarcts” value in test [3] (no IPC, isolated rat heart, 37 °C, Gap peptide 0.5 µM (Figure 1 legend: 0.05 µM) prior to and after 30 min global ischemia, 2 h reperfusion, TTC, mean ± SEM) stood at 76.2 ± 2.7%.
